Blank lines part the entries; values can stand above or below the molecule they belong to.
What was measured:
[1] = biological target: T1, CYP1A1 (Homo sapiens, UniProt P04798); assay: Two-step luminescent P450 screen of luciferin derivatives; settings: 50 µM substrate, 1 pmole P450, 37°C 30 minutes; result in words
T1 sequence (P04798 1-512): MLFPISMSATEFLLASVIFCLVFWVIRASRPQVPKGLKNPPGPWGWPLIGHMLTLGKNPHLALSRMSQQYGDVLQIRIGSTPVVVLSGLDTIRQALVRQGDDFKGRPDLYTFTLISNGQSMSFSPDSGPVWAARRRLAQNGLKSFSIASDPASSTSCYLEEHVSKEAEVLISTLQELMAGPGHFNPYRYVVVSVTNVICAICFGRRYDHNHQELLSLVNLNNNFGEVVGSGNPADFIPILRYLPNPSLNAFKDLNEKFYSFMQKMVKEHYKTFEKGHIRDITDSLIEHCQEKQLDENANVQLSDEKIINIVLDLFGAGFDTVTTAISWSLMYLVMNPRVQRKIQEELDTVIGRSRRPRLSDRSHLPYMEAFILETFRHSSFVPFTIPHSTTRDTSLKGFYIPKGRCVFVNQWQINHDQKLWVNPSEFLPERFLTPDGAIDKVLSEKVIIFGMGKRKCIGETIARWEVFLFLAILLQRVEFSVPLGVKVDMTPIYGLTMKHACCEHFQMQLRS

[2] = biological target: T2, CYP2C8 (Homo sapiens, UniProt P10632); assay: as above; settings: 50 µM substrate, 1 pmole P450, result in words
T2 sequence (P10632 1-490): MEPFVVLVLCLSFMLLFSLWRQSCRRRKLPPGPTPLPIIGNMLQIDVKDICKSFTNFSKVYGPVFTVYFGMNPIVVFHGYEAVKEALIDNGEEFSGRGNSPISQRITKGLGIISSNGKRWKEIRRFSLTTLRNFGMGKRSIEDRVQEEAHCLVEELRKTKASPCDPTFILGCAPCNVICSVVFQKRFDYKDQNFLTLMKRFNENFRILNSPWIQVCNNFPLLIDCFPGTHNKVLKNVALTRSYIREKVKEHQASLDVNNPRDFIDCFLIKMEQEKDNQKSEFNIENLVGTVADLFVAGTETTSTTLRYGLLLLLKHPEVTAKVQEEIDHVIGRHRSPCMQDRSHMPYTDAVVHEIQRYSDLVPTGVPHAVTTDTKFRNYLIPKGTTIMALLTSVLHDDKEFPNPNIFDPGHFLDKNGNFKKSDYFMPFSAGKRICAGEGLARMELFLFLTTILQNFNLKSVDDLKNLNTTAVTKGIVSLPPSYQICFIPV

[3] = biological target: T3, CYP2C9 (Homo sapiens, UniProt P11712); assay: as above; assay type: biochemical; settings: 50 µM substrate, 1 pmole P450, result in words
T3 construct: purchased Discovery Labware (BD/Gentest); host or cells: insect cell expression system (membrane fractions)
Protocol: (§1) P450s are Supersomes™ purchased from Discovery Labware (BD/Gentest). […] HLM is human liver microsomes.
(§2) 1X substrate concentration: 50 µM.

[4] = biological target: T4, CYP4A11 (Homo sapiens, UniProt Q02928); assay: as above; assay type: biochemical; settings: result in words
T4 construct: purchased Discovery Labware (BD/Gentest); host or cells: insect cell expression system (membrane fractions)
T4 sequence (Q02928 5-519): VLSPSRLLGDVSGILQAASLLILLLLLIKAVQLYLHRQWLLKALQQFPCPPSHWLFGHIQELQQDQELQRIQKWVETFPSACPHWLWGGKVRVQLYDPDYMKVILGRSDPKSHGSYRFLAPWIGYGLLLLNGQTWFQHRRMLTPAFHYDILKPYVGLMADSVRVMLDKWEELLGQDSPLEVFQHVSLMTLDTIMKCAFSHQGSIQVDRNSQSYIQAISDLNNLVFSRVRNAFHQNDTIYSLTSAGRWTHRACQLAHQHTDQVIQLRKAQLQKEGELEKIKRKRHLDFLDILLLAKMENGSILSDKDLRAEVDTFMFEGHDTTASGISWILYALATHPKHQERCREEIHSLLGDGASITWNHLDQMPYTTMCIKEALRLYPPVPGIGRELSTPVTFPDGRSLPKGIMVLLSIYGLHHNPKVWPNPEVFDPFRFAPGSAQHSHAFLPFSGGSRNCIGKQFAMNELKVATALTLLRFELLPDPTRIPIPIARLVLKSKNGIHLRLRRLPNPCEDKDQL
Protocol: as §1, §2

[5] = biological target: T5, CYP1A2 (Homo sapiens, UniProt P05177); assay: as above; assay type: biochemical; settings: 50 µM substrate, 1 pmole P450, result in words
T5 construct: purchased Discovery Labware (BD/Gentest); host or cells: insect cell expression system (membrane fractions)
T5 sequence (P05177 2-516 limits assumed): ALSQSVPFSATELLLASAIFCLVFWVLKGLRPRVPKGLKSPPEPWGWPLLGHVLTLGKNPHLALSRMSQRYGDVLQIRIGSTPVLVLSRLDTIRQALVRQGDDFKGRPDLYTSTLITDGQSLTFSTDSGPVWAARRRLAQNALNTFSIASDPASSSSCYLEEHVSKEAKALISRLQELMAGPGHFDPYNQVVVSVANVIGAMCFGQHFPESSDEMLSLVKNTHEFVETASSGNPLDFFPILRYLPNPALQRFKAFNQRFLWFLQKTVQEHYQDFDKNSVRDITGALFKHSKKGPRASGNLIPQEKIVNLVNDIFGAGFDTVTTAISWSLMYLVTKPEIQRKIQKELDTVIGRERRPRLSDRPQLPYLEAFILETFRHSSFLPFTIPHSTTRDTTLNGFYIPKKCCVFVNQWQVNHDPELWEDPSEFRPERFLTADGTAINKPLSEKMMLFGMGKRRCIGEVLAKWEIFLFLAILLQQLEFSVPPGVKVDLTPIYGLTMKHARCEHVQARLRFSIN
Protocol: as §1, §2

[6] = biological target: CYP3A7 (Homo sapiens, UniProt P24462); assay: as above; settings: result in words
[7] = test system: porcine esterase; assay: Two-step luminescent carboxylesterase assay with D-luciferin esters; assay type: biochemical; settings: result in words
Description: D-luciferin esters were substrates for carboxylesterases in a two step luminescent assay format similar to that used for P450s. […] Though signals varied between P450 preparations no P450 preparation was much brighter than the control. It seems likely then that the signals were not due to P450 activity in the preparations hut rather, variable amounts of carboxyl esterase activities. Methyl, ethyl and picolinyl esters of D-luciferin were also characterized as substrates for a purified preparation of porcine esterase without any p450. In this format each ester linked group was cleaved by the esterase to yield D-luciferin that in turn reacted with luciferase to make light.

[8] = biological target: T6, CYP2C19 (Homo sapiens, UniProt P33261); assay: Two-step luminescent P450 screen of luciferin derivatives; assay type: biochemical; settings: result in words
T6 construct: purchased Discovery Labware (BD/Gentest); host or cells: insect cell expression system (membrane fractions)
Protocol: as §1, §2
(§3) For Figure 20, 1 or 5 picomoles of recombinant CYP2D6 or CYP2C19 membrane fractions from an insect cell expression system (SupersomesTM, Discovery Labware) were incubated at 37°C for 60 minutes with 200 µM D-luciferin 6' methyl ether (luciferin-ME) in 50 mM (CYP2C19) or 100 mM (CYP2D6) KPO4 (pH 7.4) with an NADPH regenerating system (as described above) in a volume of 50 µl. […] For Figure 20, the panel of human P450s was screened as described above.

[9] = biological target: T7, CYP2D6 (Homo sapiens, UniProt P10635); assay: as above; assay type: biochemical; settings: result in words
T7 construct: purchased Discovery Labware (BD/Gentest); host or cells: insect cell expression system (membrane fractions)
Protocol: as §1, §2, §3

[10] = biological target: T8, QuantiLum Luciferase (Photinus pyralis, UniProt P08659); assay: Scaffolds: light emission of luciferin derivatives with QuantiLum luciferase alone, + Co A, + DTT, + Co A and DTT; assay type: biochemical, firefly
T8 construct: purchased Promega Corporation E170
Protocol: The DTT, Coenzyme A, and QuantiLum stock solutions are the same as those described herein.
This solution was diluted 1:1 with water to produce an enzyme solution labeled "No addition." This solution was diluted 1:1 with 400 mM DTT, pH 8.0 to produce a solution labeled +DTT. This solution was diluted 1:1 with 4 mM Coenzyme A to produce a solution labeled + Co A. Finally, this solution was diluted 1:1 with a solution having both 4 mM Coenzyme A and 400 mM DTT to produce a solution labeled +Co A & DTT.
50 µl samples of these solutions were placed in the wells of luminometer microtiter plates, row A to row G, respeutivly. Row H of the plates was given 50 µl of water.
Reactions in these plates were initiated by addition of 50 µl of solution containing QuantiLum luciferase using a 12 channel micropipette. The solutions added to the rows were: columns 1, 5, and 9 - no addition solution; columns 2, 6, and 10 - + Co A solution; columns 3, 7, and 11 + DTT solution, and; columns 4, 8, and 12 - + Co A and DTT solution. After addition of the enzyme solution to the first row on every plate, a timer was started. After addition of the enzyme solution to the last row on each plate, the plate was sealed and read on a Veritas luminometer.

Sequence of CYP3A7 (P24462 whole entry): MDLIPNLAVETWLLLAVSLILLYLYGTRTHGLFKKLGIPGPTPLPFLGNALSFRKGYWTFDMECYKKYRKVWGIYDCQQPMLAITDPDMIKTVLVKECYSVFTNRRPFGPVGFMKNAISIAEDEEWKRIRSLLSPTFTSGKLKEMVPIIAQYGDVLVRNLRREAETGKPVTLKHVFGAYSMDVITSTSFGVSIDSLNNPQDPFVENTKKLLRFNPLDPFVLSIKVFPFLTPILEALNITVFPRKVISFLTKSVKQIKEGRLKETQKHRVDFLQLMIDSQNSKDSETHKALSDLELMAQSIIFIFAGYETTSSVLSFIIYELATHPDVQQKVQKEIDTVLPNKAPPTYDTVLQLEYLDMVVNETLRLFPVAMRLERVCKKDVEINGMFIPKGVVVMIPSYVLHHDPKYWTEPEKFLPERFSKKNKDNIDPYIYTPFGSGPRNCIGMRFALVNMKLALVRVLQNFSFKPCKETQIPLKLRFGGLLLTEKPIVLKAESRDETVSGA
T3 sequence (P11712 whole entry): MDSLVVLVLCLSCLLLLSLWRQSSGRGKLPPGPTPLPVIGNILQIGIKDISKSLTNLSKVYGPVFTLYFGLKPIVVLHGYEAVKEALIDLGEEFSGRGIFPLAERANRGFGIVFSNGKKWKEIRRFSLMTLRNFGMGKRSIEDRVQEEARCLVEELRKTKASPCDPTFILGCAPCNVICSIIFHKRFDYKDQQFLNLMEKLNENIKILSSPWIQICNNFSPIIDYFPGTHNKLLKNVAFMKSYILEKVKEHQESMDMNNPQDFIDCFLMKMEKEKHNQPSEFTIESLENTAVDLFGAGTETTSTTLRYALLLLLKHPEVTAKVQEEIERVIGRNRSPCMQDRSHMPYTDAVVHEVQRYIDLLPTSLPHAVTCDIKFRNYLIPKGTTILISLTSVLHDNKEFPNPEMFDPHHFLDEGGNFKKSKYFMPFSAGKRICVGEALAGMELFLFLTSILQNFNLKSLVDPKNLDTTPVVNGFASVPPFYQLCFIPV
T8 sequence (P08659 whole entry): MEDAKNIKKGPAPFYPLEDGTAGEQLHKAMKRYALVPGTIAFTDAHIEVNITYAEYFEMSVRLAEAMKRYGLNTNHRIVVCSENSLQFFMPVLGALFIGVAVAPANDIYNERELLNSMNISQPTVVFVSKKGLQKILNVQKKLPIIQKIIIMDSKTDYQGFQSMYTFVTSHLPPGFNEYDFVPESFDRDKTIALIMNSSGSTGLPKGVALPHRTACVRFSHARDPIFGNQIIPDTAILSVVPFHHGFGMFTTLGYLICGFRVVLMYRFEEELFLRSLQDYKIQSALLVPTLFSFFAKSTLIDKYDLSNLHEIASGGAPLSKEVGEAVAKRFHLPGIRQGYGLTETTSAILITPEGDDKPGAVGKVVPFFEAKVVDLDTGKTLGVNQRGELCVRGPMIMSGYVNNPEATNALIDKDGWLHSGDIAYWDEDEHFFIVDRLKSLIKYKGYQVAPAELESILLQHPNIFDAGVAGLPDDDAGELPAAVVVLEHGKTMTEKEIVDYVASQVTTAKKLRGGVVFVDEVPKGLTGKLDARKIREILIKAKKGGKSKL
T7 sequence (P10635 whole entry): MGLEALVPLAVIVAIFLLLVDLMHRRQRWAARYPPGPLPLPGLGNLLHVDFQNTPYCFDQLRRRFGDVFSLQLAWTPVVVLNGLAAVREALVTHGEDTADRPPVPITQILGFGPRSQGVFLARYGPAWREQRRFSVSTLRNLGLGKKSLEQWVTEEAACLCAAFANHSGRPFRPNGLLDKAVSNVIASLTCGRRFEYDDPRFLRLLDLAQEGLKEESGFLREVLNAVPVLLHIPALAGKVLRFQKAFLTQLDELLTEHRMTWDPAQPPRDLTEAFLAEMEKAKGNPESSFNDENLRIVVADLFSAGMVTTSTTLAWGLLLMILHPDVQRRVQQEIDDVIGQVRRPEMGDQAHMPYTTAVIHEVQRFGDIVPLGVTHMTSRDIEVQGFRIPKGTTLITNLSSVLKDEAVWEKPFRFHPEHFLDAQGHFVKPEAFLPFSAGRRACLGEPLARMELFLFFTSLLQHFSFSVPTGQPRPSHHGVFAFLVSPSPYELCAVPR
T6 sequence (P33261 whole entry): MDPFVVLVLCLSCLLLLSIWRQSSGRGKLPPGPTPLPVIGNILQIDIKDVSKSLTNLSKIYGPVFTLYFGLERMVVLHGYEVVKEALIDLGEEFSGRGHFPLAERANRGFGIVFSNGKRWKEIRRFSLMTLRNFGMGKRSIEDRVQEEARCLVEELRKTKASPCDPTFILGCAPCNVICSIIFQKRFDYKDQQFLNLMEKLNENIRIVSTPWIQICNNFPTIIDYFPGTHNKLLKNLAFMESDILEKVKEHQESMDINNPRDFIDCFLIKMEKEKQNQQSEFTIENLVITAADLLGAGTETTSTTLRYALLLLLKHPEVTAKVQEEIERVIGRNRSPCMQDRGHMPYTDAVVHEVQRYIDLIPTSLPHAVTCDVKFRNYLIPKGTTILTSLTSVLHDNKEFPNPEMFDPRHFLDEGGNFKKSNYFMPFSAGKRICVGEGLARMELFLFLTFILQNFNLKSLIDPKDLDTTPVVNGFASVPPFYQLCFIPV

substrate for carboxylesterases in a two step luminescent assay format [7]: effective
Molecule: COC(=O)[C@H]1CSC(c2nc3ccc(O)cc3s2)=N1 [D-luciferin methyl ester]

substrate for carboxylesterases in a two step luminescent assay format [7]: effective
Molecule: O=C(OCc1cccnc1)[C@H]1CSC(c2nc3ccc(O)cc3s2)=N1 [D-luciferin picolinyl ester, m-picolinyl ester of luciferin]

P450 activity / selectivity with the derivative as substrate [6]: cross reacted significantly
Molecule: O=C(O)[C@H]1CSC(c2nc3ccc(OCc4cccnc4)cc3s2)=N1 [luciferin 6' 3-picolinyl ether, reference compound]

P450 activity / selectivity with the derivative as substrate [8]: some activity
P450 activity / selectivity with the derivative as substrate [9]: extremely low activity
P450 activity / selectivity with the derivative as substrate ([9]; listed as Luciferin 6-methyl ether): some activity
light emission values ([10]; Derivative Conc. 1.07, Alone): 1197
light emission values ([10]; Derivative Conc. 1.07, Co A): 1523
light emission values ([10]; Derivative Conc. 1.07, Co A + DTT): 3180
light emission values ([10]; Derivative Conc. 1.07, DTT): 3160
light emission values ([10]; Derivative Conc. 3.13, Alone): 1053
light emission values ([10]; Derivative Conc. 3.13, Co A): 1360
light emission values ([10]; Derivative Conc. 3.13, Co A + DTT): 2853
light emission values ([10]; Derivative Conc. 3.13, DTT): 3332
light emission values ([10]; Derivative Conc. 6.25, Alone): 1240
light emission values ([10]; Derivative Conc. 6.25, Co A): 1673
light emission values ([10]; Derivative Conc. 6.25, Co A + DTT): 2882
light emission values ([10]; Derivative Conc. 6.25, DTT): 2844
light emission values ([10]; Derivative Conc. 12.5, Alone): 1563
light emission values ([10]; Derivative Conc. 12.5, Co A): 1768
light emission values ([10]; Derivative Conc. 12.5, Co A + DTT): 2510
light emission values ([10]; Derivative Conc. 12.5, DTT): 2961
light emission values ([10]; Derivative Conc. 25, Alone): 2083
light emission values ([10]; Derivative Conc. 25, Co A): 2224
light emission values ([10]; Derivative Conc. 25, Co A + DTT): 2992
light emission values ([10]; Derivative Conc. 25, DTT): 3491
light emission values ([10]; Derivative Conc. 50, Alone): 2690
light emission values ([10]; Derivative Conc. 50, Co A): 2704
light emission values ([10]; Derivative Conc. 50, Co A + DTT): 3635
light emission values ([10]; Derivative Conc. 50, DTT): 4052
light emission values ([10]; Derivative Conc. 100, Alone): 3589
light emission values ([10]; Derivative Conc. 100, Co A): 3389
light emission values ([10]; Derivative Conc. 100, Co A + DTT): 4550
light emission values ([10]; Derivative Conc. 100, DTT): 5399
Molecule: COc1ccc2nc(C3=N[C@@H](C(=O)O)CS3)sc2c1 [luciferin 6-methyl ether, D-luciferin 6' methyl ether, reference compound]

P450 activity / selectivity with the derivative as substrate [6]: selective
Molecule: bis-luciferin-xylyldiether

The remaining lines, values behind:

Molecule: COc1cc(OC)c2nc(C3=NC(C(=O)O)CS3)sc2c1 (centres unmarked) [4-(O-methyl)-6-(O-methyl)-luciferin]
P450 activity / selectivity with the derivative as substrate [1]: preferred substrate
P450 activity / selectivity with the derivative as substrate [2]: enhanced selectivity
P450 activity / selectivity with the derivative as substrate ([2]; listed as line 12): preferred substrate
P450 activity / selectivity with the derivative as substrate [3]: enhanced selectivity
P450 activity / selectivity with the derivative as substrate ([3]; listed as line 12): preferred substrate
P450 activity / selectivity with the derivative as substrate [4]: did not react
P450 activity / selectivity with the derivative as substrate [5]: enhanced selectivity
P450 activity / selectivity with the derivative as substrate ([5]; listed as line 12): preferred substrate

Molecule: COc1cc(C)c2nc(C3=NC(C(=O)O)CS3)sc2c1 (centres unmarked) [4-methyl-6-(O-methyl)-luciferin]
P450 activity / selectivity with the derivative as substrate [1]: preferred substrate
P450 activity / selectivity with the derivative as substrate [2]: enhanced selectivity
P450 activity / selectivity with the derivative as substrate ([2]; listed as line 11): preferred substrate
P450 activity / selectivity with the derivative as substrate [3]: enhanced selectivity
P450 activity / selectivity with the derivative as substrate ([3]; listed as line 11): preferred substrate
P450 activity / selectivity with the derivative as substrate [4]: did not react
P450 activity / selectivity with the derivative as substrate [5]: enhanced selectivity
P450 activity / selectivity with the derivative as substrate ([5]; listed as line 11): preferred substrate

Molecule: O=C(O)[C@H]1CSC(c2nc3ccc(OCSc4ccc(Cl)cc4)cc3s2)=N1 [6'-p-chlorophenylthiol-methoxy-luciferin, 6-(4-Chloro-phenylthiomethoxy) luciferin]
P450 activity / selectivity with the derivative as substrate [6]: showed selectivity

Molecule: CCOC(=O)[C@H]1CSC(c2nc3ccc(O)cc3s2)=N1 [D-luciferin ethyl ester]
substrate for carboxylesterases in a two step luminescent assay format [7]: effective

Source: EP1935986B1, “Luminogenic and fluorogenic compounds and methods to detect molecules or conditions” (priority 2005, dated 2006)
